The test system of the series is Sprague-Dawley rat bone marrow cells. As to the kind of experiment: Rat micronucleus test. The conditions noted are these: rat, in vivo. As for the experimental part:
Hair was removed from the administration site (subcutaneous) of the SD rats, the administration concentration of the example compounds were set to a low dose (500 mg/kg/day), a medium dose (1000 mg/kg/day), and a high dose (2000 mg/kg/day), and administered subcutaneously to the left and right […] of the test system (10 ml/kg/day each), and the compound was administered subcutaneously in divided doses to the left and right […] of the test system (10 ml/kg/day each).
24 hours after the second administration of the test substance, the femur was removed from each group to collect bone marrow cells. 0.5 mL of 10% neutral formalin was added to the bone marrow cell suspension, fixed for 5 minutes, centrifuged for 5 minutes (4° C., 1,000 rpm, Micro17TR, Hanil Science Industrial, Republic of Korea) to remove the supernatant. Then, 0.3 mL of 10% neutral formalin was added to the precipitated bone marrow cells, suspended, filtered through a cell strain, and transferred to a storage tube. The fixed bone marrow cell suspension was dropped onto a cover glass, and then covered with a slide glass coated with 20 μL of 0.05% acridine orange to prepare an observation slide. The observation slide was observed under a microscope (600× magnification, BX51, Olympus, Japan).
As an indicator of bone marrow cell proliferation inhibition, 500 total red blood cells per individual were observed, and the ratio of polychromatic red blood cells to total red blood cells (PCE/(PCE+NCE)) was calculated. As a positive control, cyclophosphamide (Cas No: 50-18-0) was administered at a dose of 20 mg/kg/day.

As to `Cc1ccc(C(=C2c3ccccc3C(=O)N2C)c2ccc(C)cc2)cc1` [Example 1-2, 3-(di-p-tolylmethylene)-2-methylisoindolin-1-one], the “appearance frequency of micronucleated polychromatic erythrocytes (MNPCE/PCE) compared to the negative control” value is given as “did not show a statistically significant difference”. In addition, for the setting “Sprague-Dawley, 24 h”, the “ratio of polychromatic red blood cells to the total number of red blood cells, relative to negative control” value is given as ≥ 20 % of the negative control.

The record behind these values is patent US20250134860A1, “NOVEL COMPOUND, AND COMPOSITION FOR PREVENTING, ALLEVIATING OR TREATING BACTERIAL INFLAMMATION AND INFLAMMASOME-MEDIATED DISEASES, COMPRISING SAME AS ACTIVE INGREDIENT” (Quorum Bio Co., Ltd., priority 2022, published 2025).
